Experimental data reported in US20260355165A1, “2,3,4,9-TETRAHYDRO-1H-PYRIDO[3,4-B]INDOLE DERIVATIVES AS ESTROGEN RECEPTOR MODULATORS FOR THE TREATMENT OF CANCER” (Olema Pharmaceuticals, Inc., priority 2022, published 2026).

Target: T1, estrogen receptor (Homo sapiens, UniProt P03372)
T1 construct: endogenous in cells; host or cells: ECC-1 cells
T1 sequence (P03372 1-595): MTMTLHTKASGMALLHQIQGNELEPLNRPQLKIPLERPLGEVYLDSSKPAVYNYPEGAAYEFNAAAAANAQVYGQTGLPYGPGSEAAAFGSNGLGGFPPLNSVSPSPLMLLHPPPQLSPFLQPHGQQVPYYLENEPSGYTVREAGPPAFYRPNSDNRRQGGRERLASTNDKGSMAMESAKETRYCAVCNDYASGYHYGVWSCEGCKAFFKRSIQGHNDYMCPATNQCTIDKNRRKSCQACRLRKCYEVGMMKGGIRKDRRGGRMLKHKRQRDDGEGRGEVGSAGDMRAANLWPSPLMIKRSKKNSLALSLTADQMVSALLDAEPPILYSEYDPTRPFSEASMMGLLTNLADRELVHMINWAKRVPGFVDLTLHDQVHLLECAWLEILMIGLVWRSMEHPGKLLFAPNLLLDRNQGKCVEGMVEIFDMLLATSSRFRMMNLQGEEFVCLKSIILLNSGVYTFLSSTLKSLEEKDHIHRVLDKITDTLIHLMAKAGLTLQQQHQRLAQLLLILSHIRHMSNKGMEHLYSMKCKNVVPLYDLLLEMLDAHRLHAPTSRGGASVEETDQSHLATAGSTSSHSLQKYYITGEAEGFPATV
Experiment: AP assay (alkaline phosphatase activity in ECC-1 cells), agonist mode (absence of E2) and antagonist mode (presence of 500 pM E2)
Format: cell-based
Details: 3 days, AP activity normalized to 500 pM E2 alone, agonist and antagonist mode combined
Summary of the method: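 ECC-1 cells in hormone-depleted medium treated with compounds for 3 days, without E2 (agonist mode) or with 500 pM E2 (antagonist mode). AP activity read at 405 nm after p-nitrophenyl phosphate substrate, 40 min at 42 °C. Signal normalized to 500 pM E2 alone.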

Row | SMILES | Activity (estrogen receptor modulation, e.g., agonism and antagonism)
1 | CC1CN(Cc2ccc3c([C@@H]4c5[nH]c6ccccc6c5C[C@@H](C)N4CC(F)F)n[nH]c3c2)C1 [Compound I-37, (1S,3R)-2-(2,2-difluoroethyl)-3-methyl-1-(6-((3-methylazetidin-1-yl)methyl)-1H-indazol-3-yl)-2,3,4,9-tetrahydro-1H-pyrido[3,4-b]indole] | ++ (estrogen receptor antagonism having (i) between 10% and 80% increase in the E2-normalized signal in the AP assay (agonist mode) and (ii) between 10% and 80% reduction in the E2-normalized signal in the AP assay (antagonist mode))
2 | C[C@@H]1Cc2c([nH]c3ccccc23)[C@@H](c2ccc3cc(CN4CC(CF)C4)[nH]c3c2)N1CC(C)(C)F [Compound I-55, (1R,3R)-1-[2-[[3-(fluoromethyl)azetidin-1-yl]methyl]-1H-indol-6-yl]-2-(2-fluoro-2-methyl-propyl)-3-methyl-1,3,4,9-tetrahydropyrido[3,4-b]indole] | + (estrogen receptor agonism having (i) at least 80% increase in the E2-normalized signal in the AP assay (agonist mode) and (ii) no more than 80% reduction in the E2-normalized signal in the AP assay (antagonist mode))
3 | COC1CN(Cc2cc3cc([C@@H]4c5[nH]c6ccccc6c5C[C@@H](C)N4CC(C)(C)F)ccc3[nH]2)C1 [Compound I-94, (1R,3R)-2-(2-fluoro-2-methyl-propyl)-1-[2-[(3-methoxyazetidin-1-yl)methyl]-1H-indol-5-yl]-3-methyl-1,3,4,9-tetrahydropyrido[3,4-b]indole] | + (estrogen receptor agonism having (i) at least 80% increase in the E2-normalized signal in the AP assay (agonist mode) and (ii) no more than 80% reduction in the E2-normalized signal in the AP assay (antagonist mode))
4 | C[C@@H]1Cc2c([nH]c3ccccc23)[C@@H](c2c[nH]c3ncc(CN4CC5CC5C4)cc23)N1CC(C)(C)F (stereo partly drawn) [Compound I-61, (1R,3R)-1-[5-(3-azabicyclo[3.1.0]hexan-3-ylmethyl)-1H-pyrrolo[2,3-b]pyridin-3-yl]-2-(2-fluoro-2-methyl-propyl)-3-methyl-1,3,4,9-tetrahydropyrido[3,4-b]indole] | + (estrogen receptor agonism having (i) at least 80% increase in the E2-normalized signal in the AP assay (agonist mode) and (ii) no more than 80% reduction in the E2-normalized signal in the AP assay (antagonist mode))
5 | C[C@@H]1Cc2c([nH]c3ccccc23)[C@@H](c2ccc3[nH]c(CN4CC(CF)C4)cc3c2)N1CC(F)(F)CO [Compound I-45, 2,2-difluoro-3-[(1R,3R)-1-[2-[[3-(fluoromethyl)azetidin-1-yl]methyl]-1H-indol-5-yl]-3-methyl-1,3,4,9-tetrahydropyrido[3,4-b]indol-2-yl]propan-1-ol] | +++ (estrogen receptor antagonism (i) with pIC50 greater than 7.5 and at least a 10% reduction in the E2-normalized signal in the AP assay (antagonist mode); and (ii) no more than 10% increase in E2-normalized signal in the AP assay (agonist mode))
6 | C[C@@H]1Cc2c([nH]c3ccccc23)[C@@H](c2ccc3[nH]c(CN4CC(CF)C4)cc3n2)N1CC(C)(C)F [Compound I-70, (1S,3R)-1-[2-[[3-(fluoromethyl)azetidin-1-yl]methyl]-1H-pyrrolo[3,2-b]pyridin-5-yl]-2-(2-fluoro-2-methyl-propyl)-3-methyl-1,3,4,9-tetrahydropyrido[3,4-b]indole] | + (estrogen receptor agonism having (i) at least 80% increase in the E2-normalized signal in the AP assay (agonist mode) and (ii) no more than 80% reduction in the E2-normalized signal in the AP assay (antagonist mode))
7 | C[C@@H]1Cc2c([nH]c3ccccc23)[C@@H](c2cc3[nH]c(CNCCCF)cc3s2)N1CC(C)(C)F [Compound I-67, 3-fluoro-N-[[2-[(1S,3R)-2-(2-fluoro-2-methyl-propyl)-3-methyl-1,3,4,9-tetrahydropyrido[3,4-b]indol-1-yl]-4H-thieno[3,2-b]pyrrol-5-yl]methyl]propan-1-amine] | + (estrogen receptor agonism having (i) at least 80% increase in the E2-normalized signal in the AP assay (agonist mode) and (ii) no more than 80% reduction in the E2-normalized signal in the AP assay (antagonist mode))
8 | C[C@@H]1Cc2c([nH]c3ccccc23)[C@@H](c2ccc3[nH]c(CO)cc3c2)N1CC(C)(C)F [Compound I-93, [5-[(1R,3R)-2-(2-fluoro-2-methyl-propyl)-3-methyl-1,3,4,9-tetrahydropyrido[3,4-b]indol-1-yl]-1H-indol-2-yl]methanol] | + (estrogen receptor agonism having (i) at least 80% increase in the E2-normalized signal in the AP assay (agonist mode) and (ii) no more than 80% reduction in the E2-normalized signal in the AP assay (antagonist mode))
9 | C[C@@H]1Cc2c([nH]c3ccccc23)[C@@H](c2n[nH]c3cc(CN4CC5(COC5)C4)ccc23)N1CC(F)F [Compound I-39, 6-((3-((1S,3R)-2-(2,2-difluoroethyl)-3-methyl-2,3,4,9-tetrahydro-1H-pyrido[3,4-b]indol-1-yl)-1H-indazol-6-yl)methyl)-2-oxa-6-azaspiro[3.3]heptane] | ++ (estrogen receptor antagonism having (i) between 10% and 80% increase in the E2-normalized signal in the AP assay (agonist mode) and (ii) between 10% and 80% reduction in the E2-normalized signal in the AP assay (antagonist mode))
10 | C[C@@H]1Cc2c([nH]c3ccccc23)[C@@H](c2cc3[nH]c(C(=O)O)cc3s2)N1CC(C)(C)F.N [Compound I-65, ammonium; 2-[(1S,3R)-2-(2-fluoro-2-methyl-propyl)-3-methyl-1,3,4,9-tetrahydropyrido[3,4-b]indol-1-yl]-4H-thieno[3,2-b]pyrrole-5-carboxylate] | ++ (estrogen receptor antagonism having (i) between 10% and 80% increase in the E2-normalized signal in the AP assay (agonist mode) and (ii) between 10% and 80% reduction in the E2-normalized signal in the AP assay (antagonist mode))
